From article PMC11056994, “Potentiating Activity of GmhA Inhibitors on Gram-Negative Bacteria” (Journal of Medicinal Chemistry, 2024)
Like-named read-outs stand apart in the source and are kept apart here.

Legend:
E. coli C7 (O18:K1:H7) [1] = assay: MIC determination of antibiotics combined with a GmhA inhibitor; type: cell-based; conditions: Escherichia coli, n = 1
Experimental: (§1) The compound to be tested was diluted in 50 mM HEPES buffer (pH 7.4) from 10 mM stock solution in DMSO. Five microliters of compound dilution or buffer were distributed in a sterile clear round-bottom 96-well polystyrene microplate (Corning). Five microliters of serial 2-fold dilutions of reference antibiotics [Erythromycin (Fluka), Rifampicin (Fluka)] in DMSO were added. An exponentially growing preculture of E. coli C7 (O18:K1:H7) in LB was diluted to 10^4 cfu/mL and supplemented with 100 μM G6P, and 90 μL of this suspension were added to the microplates. After overnight incubation at 37 °C, the MIC of the antibiotics were determined for each test compound concentration as the lowest antibiotic concentration for which no bacterial pellet is visible without magnification.

E. coli GmhA = E. coli GmhA (Escherichia coli, UniProt P63224); type: biochemical; conditions: for IC50: E. coli GmhA, luminescence assay, mean ± SD of at least 3 independent experiments
E. coli GmhA, sequence (P63224 whole entry): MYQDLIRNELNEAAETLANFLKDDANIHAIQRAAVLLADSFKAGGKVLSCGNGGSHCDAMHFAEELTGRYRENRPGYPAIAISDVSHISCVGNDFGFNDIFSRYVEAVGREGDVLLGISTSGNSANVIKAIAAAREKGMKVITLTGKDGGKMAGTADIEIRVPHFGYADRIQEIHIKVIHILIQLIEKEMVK
Experimental: The assay buffer “AB” contained 50 mM HEPES, pH 7.5, 1 mM MnCl2, 25 mM KCl, 0.012% Triton-X100, 1 mM dithiothreitol (DTT), and 0.1 μM myelin basic protein (MBP, Sigma, ref M1891). The following components were added in a white polystyrene Costar plate up to a final volume of 30 μL: 10 μL of inhibitor dissolved in DMSO/water 50/50 and 20 μL of GmhA of E. coli in AB. After 30 min of preincubation at room temperature, 30 μL of the substrate mixture in AB were added in each well to give a final volume of 60 μL. […] After 30 min of incubation at room temperature, 100 μL of the revelation mix were added to a final volume of 160 μL, including the following constituents at the respective final concentrations: 10,000 light units/mL luciferase (Sigma), 20 μM D-luciferin (Sigma), and 100 μM N-acetylcysteamine (Aldrich). Luminescence intensity was immediately measured on a Luminoskan instrument (Thermofisher) and converted into inhibition percentages. For IC50 determinations, the inhibitor was tested at 6 to 10 different concentrations, and the related inhibitions were fitted using XLFit 5 (IDBS) to a classical Langmuir equilibrium model with Hill slope, according to the equation: %inhibition = 100 c^n/(c^n + IC50^n), where c is the compound concentration and n is the Hill coefficient.

[2] = tested on: E. coli C7 (018:K1:H7) LPS biosynthesis; assay: Inhibition of bacterial LPS biosynthesis (silver-stained LPS SDS-PAGE); type: cell-based; conditions: for EC50: Escherichia coli
Experimental: The compounds to be tested were prepared in deionized water/DMSO (50/50) solutions and added (25 μL) in sterile culture microtubes. The test bacterial isolate was isolated on tryptic soy agar (TSA) overnight. Isolated colonies were cultured in 10 mL of LB medium at 37 °C up to an OD of typically 0.15. These exponentially growing bacteria were finally diluted to 5 × 10^5 cfu/mL and added in each well (225 μL) for incubation with the compounds at 37 °C for approximately 5 h, up to an OD of ≈0.2–0.4. Some test compounds, e.g., phospho-sugars are actively transported into the bacterial cytosol via the phospho-sugar transporter UhpT (Figure S3). 2.5 μL portion of a 10 mM water solution of glucose-6-phosphate (G6P, 100 μM final concentration, from Sigma) was added in the culture tube in order to induce UhpT expression. LPS extraction: Bacterial cultures were normalized via OD determination, pelleted, and washed with 1 mL of phosphate-buffered-saline (PBS). The pellets were then denatured for 10 min at 95–100 °C in 50 μL of 0.2% sodium dodecyl sulfate (SDS), β-mercaptoethanol 1%, glycerol 36%, Tris 30 mM, pH 7.4, and bromophenol blue 0.001%. Samples were cooled down to room temperature, supplemented with 1.5 μL of proteinase K at 20 mg/mL, incubated for 1 h at 55 °C, and centrifuged for 30 min at 13,000 rpm at 25 °C. The resulting supernatant, containing LPS, was finally analyzed by SDS-PAGE electrophoresis. LPS SDS-PAGE electrophoresis: Polyacrylamide gels (16%/4% acrylamide for separation and concentration, respectively) were prepared, loaded with 8 μL of LPS extracts, and migrated. Silver staining: Gels were incubated overnight in 5% acetic acid/40% ethanol/deionized water, treated by 1% periodic acid/5% acetic acid for 15 min, washed 4 times for 10 min in deionized water, and finally incubated for 18 min in the dark in a silver nitrate solution composed of 56 mL of 0.1 M NaOH (56 mL), 33% aq ammonia (4 mL), 5% AgNO3 (45 mL), and deionized water (195 mL). Gels were then washed extensively in deionized water for 30 min and incubated for 10–15 min (up to LPS band appearance) in the revelation mix composed of 300 mL of deionized water (300 mL), 36.5% formaldehyde (0.3 mL, Fluka), and 2.3 M citric acid (0.1 mL). The revelation was stopped by incubating the gels in 10% acetic acid for 5 min. Gels were finally washed in deionized water, numerized with a Samsung PL51 camera, and analyzed by ImageJ software. The percentage of inhibition of LPS heptosylation was defined as the relative area of the Re-LPS band compared to the cumulated areas of Re-LPS and Core-LPS bands.

E. coli C7 [3] = assay: MIC of the compounds alone on E. coli C7; type: cell-based
Experimental: Then, we investigated the cytotoxicity and the ability of such inhibitors to potentiate the antimicrobial activity of macrolide and rifamycin antibiotics.
as §1

HepG2 cytotoxicity = type: cell-based; conditions: human; n = 2
Experimental: HepG2 cells (LGC Promochem, ref HB-8065) in EMEM medium supplemented with fetal bovine serum (10%), Ampicillin (100 mg/L), and Streptomycin (100 mg/L) were plated on cell culture plates (Costar 3596, 2 × 10^4 cells/well) and incubated overnight at 37 °C in 5% CO2. The culture medium was then aspirated and replaced by supplemented EMEM (210 μL including 2% DMSO) containing dilutions of compounds. Plates were incubated overnight at 37 °C in 5% CO2. Cell viability was determined by the Celltiter Aqueous One Cell Proliferation Assay (G3581–80, Promega) according to the manufacturer’s recommendations, using a Multiskan absorption reader (490 nm).

E. coli C7 [4] = assay: Sensitization to killing by the complement of human serum; type: cell-based; conditions: E. coli C7 grown 5 h with 0.3 and 1 mM compound 24; in 30 min
Experimental: The E. coli C7 wild type and gmhA-deleted strains were isolated from TSA plates and grown overnight in 10 mL of LB broth at 35 °C. […] After 5 h of incubation under shaking at 37 °C, the bacterial inoculum was adjusted to 10^5 cfu/mL in 20% LB broth mixed with 80% human serum (Biopredic) and filtered on 0.45 μm pore size membranes and used as such, or further heated for 30 min at 56 °C for complement deactivation. A volume of 250 μL of each condition was finally incubated at 37 °C in microtubes, and aliquots of 10 μL were sampled at 0, 15, 30, 60, 120, and 180 min for bacterial enumeration in duplicate.

GmhA = tested on: GmhA; set-up: method as in PMID 21922563; conditions: cited from earlier work
wild-type E. coli strain = tested on: wild-type E. coli strain; set-up: method as in PMID 21922563; conditions: cited from earlier work
E. coli C7 gmhA- = assay: Complementation of E. coli C7-gmhA- by H7P (LPS SDS-PAGE, UhpT transport); type: cell-based
Experimental: Figure S3: Role of UhpT phospho-sugar transporter in the transport of D-glycero-D-manno-heptose
7-phosphate (H7P). Complementation of E. coli C7-gmhA- by the GmhA product H7P. Silver-stained
LPS SDS-PAGE of E. coli C7 WT (lane 1) or gmhA- (lanes 2 -4). Culture in presence of 300 µM H7P (lane
100 µM glucose -6-phosphate (G6P) allows a strong transport of H7P, as evidenced by the restoration
(1 picture or pasted object on this page, not shown here)

E. coli C7 (O18:K1:H7) [5] = assay: Time-kill kinetics of rifampicin in combination with compound 17; type: cell-based; conditions: 17 300 μM alone or rifampicin 1 mg/L alone
Experimental: Rifampicin (Fluka) was diluted in DMSO, and the compound to be tested was diluted in water from 50 mM stock solution in 50 mM HEPES buffer, pH 7.4. Ten microliter of DMSO was distributed in sterile 1.5 mL polypropylene microtubes (Eppendorf). 2.5 μL of compound dilution or water, 2.5 μL of Rifampicin or DMSO, 2.5 μL of 10 mM G6P in water (100 μM final concentration), and 230 μL of LB were added to the microtubes. E. coli C7 (O18:K1:H7) was grown in 5 mL of LB broth at 37 °C until mid-log phase. The suspension was then diluted in LB to obtain a 100× inoculum of 5 × 10^7 cfu/mL, 2.5 μL of which were added to each microtube (5 × 10^5 cfu/mL final inoculum). The microtubes were incubated at 37 °C, and aliquots of 10 μL were sampled at 0, 2, 4, 6, 8, and 24 h for bacterial enumeration in duplicate.

[6] = antibiotic alone, E. coli C7, 100 μM G6P, read-out: MIC alone
[7] = antibiotic combined with 100 μM 17, E. coli C7, 100 μM G6P, read-out: MIC +100 μM cpd 17
[8] = E. coli C7 LPS biosynthesis by SDS-PAGE, mean ± SD of 3 experiments for 17 and 24, n = 1 for others, read-out: EC50

## CC[C@H]1OC(=O)[C@H](C)[C@@H](O[C@H]2C[C@@](C)(OC)[C@@H](O)[C@H](C)O2)[C@H](C)[C@@H](O[C@@H]2O[C@H](C)C[C@H](N(C)C)[C@H]2O)[C@](C)(O)C[C@@H](C)C(=O)[C@H](C)[C@@H](O)[C@]1(C)O [Erythromycin]
E. coli C7 (O18:K1:H7) [1]; [6]
  MIC: 32 mg/L
E. coli C7 (O18:K1:H7) [1]; [7]
  MIC: 1 mg/L

## O=C(NO)[C@@H](O)[C@H](O)[C@H](O)[C@H](O)COP(=O)(O)O [Compound 96]
E. coli GmhA
  GmhA inhibition IC50 (in words): low nanomolar range
  IC50: 0.016 ± 0.006 µM
[2]; E. coli culture of the LPS assay
  concentration above which bacterial growth is affected: > 100 µM
[2]; [8]
  EC50: > 100 µM

## O=CN(O)C[C@H](O)[C@H](O)[C@H](O)/C=C/P(=O)(O)O [Compound 25]
E. coli GmhA
  IC50: 0.15 ± 0.03 µM
[2]
  EC50: 1300 µM

## O=CN(O)C[C@H](O)[C@H](O)[C@H](O)CCP(=O)([O-])O.[Na+] [Compound 24]
[2]
  EC50: 22 ± 4 µM
E. coli C7 [3]; Escherichia coli, C7, read-out: MIC E. coli C7
  MIC: > 1000 µM
E. coli C7 [3]; compound alone, n = 2, read-out: MIC E. coli C7
  MIC: >1000 µM
HepG2 cytotoxicity
  CC50: > 1000 µM
E. coli C7 [4]
  reduction of the bacterial load in 80% human serum: 3 log

## O=CN(O)C[C@H](O)[C@H](O)[C@H](O)C(O)CP(=O)(O)O (some centres unmarked) [Compound 31]
E. coli GmhA
  IC50: 0.25 ± 0.02 µM
[2]
  EC50: 590 µM

## O=CN(O)C[C@H](O)[C@H](O)[C@H](O)CC(F)(F)P(=O)(O)O [Compound 84]
[2]
  EC50: 510 µM

## O=CN(O)C[C@H](O)[C@H](O)[C@H](O)CP(=O)(O)O [Compound 20]
E. coli GmhA
  IC50: 2.2 ± 0.5 µM
[2]; [8]
  EC50: > 3000 µM

## O=CN(O)C[C@@H](O)[C@H](O)[C@H](O)CCP(=O)(O)O [Compound 54]
E. coli GmhA
  IC50: 9.2 ± 1.6 µM
[2]
  EC50: > 300 µM

## O=CN(O)C[C@H](O)C[C@H](O)CCP(=O)(O)O [Compound 68]
E. coli GmhA
  IC50: 3 ± 0.2 µM
[2]; [8]
  EC50: 1200 µM

## COC1O[C@H]([C@H](O)COP(=O)(O)O)[C@@H](O)[C@H](O)[C@H]1O (stereo partly drawn) [methyl 7-O-phosphoryl-D-glycero-D-gluco-heptopyranoside]
GmhA
  IC50 values (in words): low micromolar range
wild-type E. coli strain
  heptosylation inhibition at 1 mM: too high to demonstrate heptosylation inhibition

## O=C[C@@H](O)[C@@H](O)[C@H](O)[C@H](O)[C@H](O)COP(=O)(O)O [H7P, D-glycero-D-manno-heptose 7-phosphate]
E. coli C7 gmhA-; 300 µM H7P, without G6P (lane 3)
  LPS profile restoration in gmhA- strain: restores some full length LPS
E. coli C7 gmhA-; H7P with UhpT induction by 100 µM glucose-6-phosphate (lane 4)
  LPS profile restoration in gmhA- strain: full LPS profile

## CO[C@H]1/C=C/O[C@@]2(C)Oc3c(C)c(O)c4c(O)c(c(/C=N/N5CCN(C)CC5)c(O)c4c3C2=O)NC(=O)/C(C)=C\C=C\[C@H](C)[C@H](O)[C@@H](C)[C@@H](O)[C@@H](C)[C@H](OC(C)=O)[C@@H]1C [Rifampicin]
E. coli C7 (O18:K1:H7) [1]; [6]
  MIC: 4 mg/L
E. coli C7 (O18:K1:H7) [1]; [7]
  MIC: 0.25 mg/L
E. coli C7 (O18:K1:H7) [5]
  effect on bacterial growth, compound alone: did not alter at all the bacterial growth

## O=CN(O)C[C@H](O)[C@H](O)[C@H](O)CC(O)P(=O)(O)O (some centres unmarked) [Compound 41]
E. coli GmhA
  IC50: 0.075 ± 0.009 µM
[2]
  EC50: 750 µM

## O=CN(O)C[C@H](O)[C@H](O)[C@H](O)C(O)C(O)P(=O)(O)O (some centres unmarked) [Compound 27]
E. coli GmhA
  IC50: 2.3 ± 0.6 µM
[2]
  EC50: > 3000 µM

## O=CN(O)C[C@H](O)[C@H](O)[C@H](O)CC(F)P(=O)([O-])O.[Na+] (some centres unmarked) [Compound 76]
E. coli GmhA
  GmhA inhibition IC50 (in words): low nanomolar range
[2]
  EC50: 76 µM
